In paper PMC7211837, “Design, synthesis, molecular modelling and in vitro screening of monoamine oxidase inhibitory activities of novel quinazolyl hydrazine derivatives” (Royal Society Open Science, 2020):
“And” between values parts separate entries of the source, which are not always exact repeats. Identical values can stand only once. “Also recorded” adds a separate entry of the source.

Tests used:
[1] = molecular target: T1, membrane-bound human MAO-A (Homo sapiens, UniProt P21397); experiment: MAO-A inhibition, H2O2/horseradish peroxidase coupled fluorescence assay with tyramine; format: biochemical; settings: for inhibition at 10 µM: read-out: % inhibition at 10 μM hMAO-A, 10 μM compound, tyramine 0.8 mM (2 × KM), average of two independent experiments; for IC50 (μM) hMAO-A / IC50: tyramine at 2 × KM, seven concentrations 0.01–300 µM, ± s.d., two independent experiments; for IC50: read-out: IC50 (μM) hMAO-A; for selectivity MAO-A versus MAO-B: from IC50 values on MAO-A and MAO-B; for inhibition of MAO-A compared with MAO-B in the screen: screen at 10 µM
T1 sequence (P21397 1-527): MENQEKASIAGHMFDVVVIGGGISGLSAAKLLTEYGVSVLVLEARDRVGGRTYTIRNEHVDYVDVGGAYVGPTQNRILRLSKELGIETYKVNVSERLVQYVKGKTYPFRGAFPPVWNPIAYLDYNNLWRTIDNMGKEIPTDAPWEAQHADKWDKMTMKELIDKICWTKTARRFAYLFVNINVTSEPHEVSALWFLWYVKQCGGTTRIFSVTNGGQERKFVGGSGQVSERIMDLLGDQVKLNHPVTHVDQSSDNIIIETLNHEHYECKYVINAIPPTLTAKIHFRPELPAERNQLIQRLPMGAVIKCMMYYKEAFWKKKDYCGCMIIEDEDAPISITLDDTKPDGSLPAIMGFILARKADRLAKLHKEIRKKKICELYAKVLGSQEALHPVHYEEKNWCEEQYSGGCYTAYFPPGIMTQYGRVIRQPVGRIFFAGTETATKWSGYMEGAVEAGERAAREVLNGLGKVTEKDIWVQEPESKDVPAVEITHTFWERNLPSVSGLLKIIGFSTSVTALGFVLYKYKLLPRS
Method: (§1) Incomplete inhibition of activity could arise either from indirect effects on these enzymes or from the compounds acting as substrates at the highest concentrations.
(§2) The activity of MAO was determined using the coupled assay method of [41, 42] in which the product, H2O2, acts with horseradish peroxidase to convert 10-acetyl-3,7-dihydroxyphenoxazine to the fluorescent resorufin. […] The data were analysed using the equation for a three-parameter curve in Graphpad PRISM v. 4, and the % inhibition calculated from the top and bottom of the resulting curve.

[2] = molecular target: T2, membrane-bound human MAO-B (Homo sapiens, UniProt P27338); experiment: MAO-B inhibition, H2O2/horseradish peroxidase coupled fluorescence assay with tyramine; format: biochemical; settings: for maximum inhibition (%) hMAO-B: from dose–response curve, in parentheses after IC50, given if less than 95%; for inhibition at 10 µM: read-out: % inhibition at 10 μM hMAO-B, 10 μM compound, tyramine 0.32 mM (2 × KM), average of two independent experiments; for IC50 / IC50 (μM) hMAO-B: tyramine at 2 × KM, seven concentrations 0.01–300 µM, ± s.d., two independent experiments; for IC50: read-out: IC50 (μM) hMAO-B
T2 sequence (P27338 1-520): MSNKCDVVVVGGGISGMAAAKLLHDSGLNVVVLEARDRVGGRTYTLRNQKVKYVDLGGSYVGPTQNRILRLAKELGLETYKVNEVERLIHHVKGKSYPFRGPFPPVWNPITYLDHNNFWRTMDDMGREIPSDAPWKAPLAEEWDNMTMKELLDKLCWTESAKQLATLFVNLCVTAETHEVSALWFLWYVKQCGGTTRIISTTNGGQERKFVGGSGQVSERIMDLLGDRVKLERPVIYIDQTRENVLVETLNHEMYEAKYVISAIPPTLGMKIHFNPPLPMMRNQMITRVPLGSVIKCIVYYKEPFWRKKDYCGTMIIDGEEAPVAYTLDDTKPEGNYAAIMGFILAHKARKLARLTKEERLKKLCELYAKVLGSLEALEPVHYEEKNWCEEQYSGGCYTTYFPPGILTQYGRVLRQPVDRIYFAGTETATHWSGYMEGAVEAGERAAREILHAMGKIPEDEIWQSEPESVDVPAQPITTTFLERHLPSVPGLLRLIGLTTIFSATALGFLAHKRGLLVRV
Method: as §1, §2

Compound	inhibition at 10 µM [1] [%]	maximum inhibition (%) hMAO-B [2]	inhibition at 10 µM [2] [%]	IC50 [2]	melting point [°C]	also measured
COC(=O)CN1C(=O)c2ccccc2NC1c1ccccc1 (centres unmarked) [3a, Methyl-2-(4-oxo-2-phenyl-1,2-dihydroquinazolin-3(4H)-yl)acetate]	-6	40%	38	5.28 ± 1.44 µM	–	IC50 (μM) hMAO-A [1]: none
COC(=O)CN1C(=O)c2cc(Cl)ccc2NC1c1ccccc1 (centres unmarked) [3b, Methyl-2-(6-chloro-4-oxo-2-phenyl-1,2-dihydroquinazolin-3(4H)-yl)acetate]	10	–	34	–	162 to 163	–
COC(=O)CN1C(=O)c2cc(Cl)ccc2NC1c1ccc(OC)cc1 (centres unmarked) [3c, Methyl 2-(6-chloro-2-(4-methoxyphenyl)-4-oxo–1,2-dihydroquinazolin-3(4H)-yl)acetate]	-3	–	10	–	148 to 150	–
COC(=O)CN1C(=O)c2cc(Cl)ccc2NC1c1ccccc1OC (centres unmarked) [3d, Methyl 2-(6-chloro-2-(2-methoxyphenyl)-4-oxo–1,2-dihydroquinazolin-3(4H)-yl)acetate]	0	–	27	–	152 to 154	–
NNC(=O)CN1C(=O)c2cc(Cl)ccc2NC1c1ccccc1 (centres unmarked) [4b, 2-(6-Chloro-4-oxo-2-phenyl-1,2-dihydroquinazolin-3(4H)-yl)acetohydrazide]	6	–	31	–	184 to 185	–
COc1ccc(C2Nc3ccc(Cl)cc3C(=O)N2CC(=O)NN)cc1 (centres unmarked) [4c, 2-(6-Chloro-2-(4-methoxyphenyl)-4-oxo-1,2-dihydroquiazolin-3(4H)-yl)acetohydrazide]	0	–	27	–	159 to 160	–
COc1ccccc1C1Nc2ccc(Cl)cc2C(=O)N1CC(=O)NN (centres unmarked) [4d, 2-(6-Chloro-2-(2-methoxyphenyl)-4-oxo-1,2-dihydroquinazolin-3(4H)-yl)acetohydrazide]	0	–	28	–	149 to 151	–
O=C(CN1C(=O)c2ccccc2NC1c1ccccc1)NN=Cc1ccccc1 (centres unmarked) [5a, N'-Benzylidene-2-(4-oxo-2-phenyl-1,2-dihydroquinazolin-3(4H)-yl)acetohydrazide]	19	full inhibition	55	< 10 µM and 10 µM	223 to 225	IC50 (μM) hMAO-A [1]: micromolar potency; IC50 [1]: 4.4 µM and 6 µM and 6.2 µM; IC50 (μM) hMAO-B [2]: micromolar affinity
O=C(CN1C(=O)c2ccccc2NC1c1ccccc1)NN=Cc1ccc(O)cc1 (centres unmarked) [5b, N'-(4-Hydroxybenzylidene)-2-(4-oxo-2-phenyl-1,2-dihydroquinazolin-3(4H)-yl)acetohydrazide]	6	–	36	83 µM	230 to 232	IC50 (μM) hMAO-A [1]: none
COc1ccc(C=NNC(=O)CN2C(=O)c3ccccc3NC2c2ccccc2)cc1 (centres unmarked) [5c, N'-(4-Methoxybenzylidene)-2-(4-oxo-2-phenyl-1,2-dihydroquinazolin-3(4H)-yl)acetohydrazide]	–	–	–	–	210 to 212	–
COc1cc(C=NNC(=O)CN2C(=O)c3ccccc3NC2c2ccccc2)ccc1O (centres unmarked) [5d, N'-(4-Hydroxy-3-methoxybenzylidene)-2-(4-oxo-2-phenyl-1,2-dihydroquinazolin-3(4H)yl)acetohydrazide]	71	full inhibition	70	0.75 ± 0.18 µM	252 to 255	selectivity MAO-A versus MAO-B [1]: threefold selective for MAO-A; inhibition of MAO-A compared with MAO-B in the screen [1]: equal inhibition of MAO-A and MAO-B; also recorded: equally inhibited; IC50 (μM) hMAO-A [1]: micromolar potency; IC50 [1]: 0.27 ± 0.06 µM; IC50 (μM) hMAO-B [2]: micromolar affinity
O=C(CN1C(=O)c2cc(Cl)ccc2NC1c1ccccc1)NN=Cc1ccccc1 (centres unmarked) [5e, N'-Benzylidene-2-(6-chloro-4-oxo-2-phenyl-1,4-dihydroquinazolin-3(2H)-yl)acetohydrazide]	10	–	19	–	266 to 270	–
COc1ccc(C=NNC(=O)CN2C(=O)c3cc(Cl)ccc3NC2c2ccccc2)cc1 (centres unmarked) [5f, 2-(6-Chloro-4-oxo-2-phenyl-1,4-dihydroquinazolin-3(2H)-yl)-N'-(4-methoxybenzylidene)-acetohydrazide]	–	–	–	–	138 to 140	–
O=C(CN1C(=O)c2cc(Cl)ccc2NC1c1ccccc1)NN=Cc1ccc(O)cc1 (centres unmarked) [5g, 2-(6-Chloro-4-oxo-2-phenyl-1,4-dihydroquinazolin-3(2H)-yl)-N'-(4-hydroxybenzylidene)acetohydrazide]	22	full inhibition	36	11 ± 4 µM	236 to 240	selectivity MAO-A versus MAO-B [1]: A-selective; IC50 (μM) hMAO-A [1]: micromolar potency; IC50 [1]: 4.34 ± 1.31 µM; IC50 (μM) hMAO-B [2]: micromolar affinity
Cc1nc2ccccc2c(=O)n1/N=C/c1ccccc1 [14a]	5	77%	40	< 10 µM and 6.84 µM	–	IC50 (μM) hMAO-A [1]: does not inhibit MAO-A
Cc1nc2ccccc2c(=O)n1/N=C/c1ccc(O)cc1 [14b]	14	77%	52	4.64 ± 0.41 µM	–	selectivity MAO-A versus MAO-B [1]: B-selective; IC50 (μM) hMAO-A [1]: no inhibition; mechanism of inhibition of MAO-B ([2]; 30 min preincubation, dilution ×100, increasing substrate concentration): competitive inhibition
COc1ccc(/C=N/n2c(C)nc3ccccc3c2=O)cc1 [14c]	8	73%	44	6.75 ± 1.06 µM	–	–
COc1cc(/C=N/n2c(C)nc3ccccc3c2=O)ccc1O [14d]	11	77%	44	5.93 ± 1.02 µM	–	–
NNC(=O)Cn1c(-c2ccccc2)nc2ccccc2c1=O [compound 7, 2-(4-oxo-2-phenylquinazolin-3(4H)-yl)acetohydrazide]	–	–	–	–	215 to 218	–
COC(=O)Cn1c(-c2ccccc2)nc2ccccc2c1=O [compound 8, Methyl 2-(4-oxo-2-phenylquinazolin-3(4H)-yl)acetate]	–	–	–	–	115 to 116	–
Cc1nc2ccccc2c(=O)n1CC(=O)NN [compound 11, 2-(2-Methyl-4-oxoquinazolin-3(4H)-yl)acetohydrazide]	15	–	19	> 100 µM	–	inhibition of MAO-A compared with MAO-B in the screen [1]: equal inhibition of MAO-A and MAO-B; also recorded: equally inhibited
Cc1nc2ccccc2c(=O)n1N [compound 13]	-8	–	23	–	–	–
COc1ccc2c(c1)[nH]c1c(C)nccc12 [harmine, reference compound]	100	–	17	11.6 ± 3.1 µM	–	–
C[C@H](NCc1ccc(OCc2cccc(F)c2)cc1)C(N)=O [safinamide, reference compound]	11	–	–	–	–	–
